Measured values reported in US20240245680A1, “Methods of Treating Retinal Vasculopathies” (Unity Biotechnology, Inc., priority 2021, published 2024).
“Also recorded” adds a separate entry of the source.

Columns and labels:
[1] = tested on: ATF4 protein expression in retina; test: Retinal ATF4 protein immunoblot after IP dosing, adult retinas; format: in vivo, mouse; details: IP 30 and 60 mpk, adult retinas 4 hours post administration, immunoblot vs Actinin (FIG. 11C)
Method: Intraperitoneally administered Compound 39 activated ATF4 protein expression at 30 and 60 mpk. Adult eye retinas were dissected 4 hours post Compound 39 administration and the harvested samples were kept on ice and homogenized using Precellys™ (500 μL tubes) tissue homogenizer in 300 μL MSD Tris Lysis buffer containing Pierce Protease Inhibitor Complete Mini tablet (ThermoScientific™ A32963). Homogenized samples were then centrifuged to separate supernatant from debris. Lysates were separated by SDS-PAGE and immunoblotted for ATF4 (D4B8) and control protein Actinin (Cell Signaling, cat. 3134S).

OIR mouse model = test: Oxygen-induced retinopathy (OIR) mouse model, retinal flatmounts at P17; format: in vivo; details: OIR pups, two 90 mpk intraperitoneal doses (P12 and P14), read at P17 (FIG. 14A, 15B)
Text: The OIR model is based on the exposure of mouse pups to hyperoxia during a phase when their retinal vasculature is still developing. This leads to capillary depletion, and upon return to room air, results in retinal ischemia and proliferative vascular disease in the retinal vasculature or oxygen-induced retinopathy.
C57BL/6J pups at postnatal day 7 (P7) are housed in a hyperoxic chamber (75% O2) for 5 days (n=10 per cage) leading to vessel regression in the center of the retina. CD-1 fostering mothers are rotated before and 2-3 days after entering the chamber. […]
Retinas are dissected and incubated overnight with rhodamine-labeled lectin from Bandeiraea simplicifolia (Griffonia simplicifolia) (1:100) in 1 mM CaCl2) in PBS to visualize vaso-obliterated (VO) or neovascular (NV) areas. […] Images can be analyzed on Visiopharm® to determine % VO or % NV of total retina. […]
Avascular areas and areas of neovascularization were quantified after harvest and staining of retinal flatmounts at P17 in the model.
OIR pups were treated with intraperitoneal injection of 90 mpk Compound 39 at P12, then these pups were removed to room air with their nursing mothers, repeat dosed at P14, and were sacrificed at P17. […] To determine avascular or neovascular areas, retinas were flatmounted, and stained with isolectin B4 (IB4) for fluorescence microscopy. […]

CNc1nc2ccc(-c3c(C)ccc(C(=O)c4c(-c5ccccc5)n(C)n(-c5ccccc5)c4=O)c3N)cc2s1 [Compound 39, 4-(2-Amino-4-methyl-3-(2-(methylamino)benzo[d]thiazol-6-yl)benzoyl)-1-methyl-2,5-diphenyl-1H-pyrazol-3(2H)-one]
levels of ATF4 protein in retina [1]: increased | neovascularization (OIR mouse model): significant reversal; also recorded: significantly suppressed
